From patent publication US20210032674A1, “METHOD FOR DETERMINING MICROORGANISM CONCENTRATION” (priority 2018, published 2021)
In brackets after ≈: the same amount, converted by molar mass.

System: clinical isolate of Klebsiella pneumoniae
Assay: Antibiotic susceptibility test (AST), MIC calling by automated microscopy imaging of microbial biomass in a 336-well AST-disc
Assay type: cell-based
Settings: K. pneumoniae recovered from spiked positive blood culture flask, adjusted to 5x10^5 CFU/ml in CAMBH, 35° C., up to 5.5 hours total AST time; for MIC: Klebsiella pneumoniae, 5.5 h
Method: Clinical isolates grown on agar plate were individually suspended in PBS and adjusted to 0.5 McFarland. A 1:100 dilution of this was added together with 9 ml of blood from a healthy donor to a blood culture flask (BD Bactec Plus Aerob) and incubated in a blood culture cabinet overnight. In the morning, after the BCF had turned positive a 500 μl aliquot of the positive BCF were used for the subsequent analysis.
The value of the concentration determination was compared to a pre-determined standard curve and the concentration of microorganisms in the recovered suspension was automatically adjusted to the desired concentration (5×10^5 CFU/ml). For this experiment an aliquot of the concentration adjusted bacteria were plated on an agar plate to determine viable cell count to provide a control measure for the process.
The concentration adjusted sample in CAMBH was added using an automated pipette via central access ports to a 336-well AST-disc pre-filled with dried antibiotics in various concentrations.
Each well contain 20 μl of sample and is incubated at 35° C. An initial reading was taken after 30 minutes (reading 0). Subsequent readings (readings 1-6) were taken every hour up to 5.5 hours total AST time by imaging by automated microscopy.
MIC antibiotic concentrations (measured in mg/I) were determined for a range of antibiotics. Each antibiotic were present in triplicates in the AST-consumable in this experiment.

Molecule	MIC (replicate #1) [µg/mL]	MIC (replicate #2) [µg/mL]	MIC (replicate #3) [µg/mL]	MIC values (replicate #1)	MIC values (replicate #2)	MIC values (replicate #3)
NCC[C@H](O)C(=O)N[C@@H]1C[C@H](N)[C@@H](O[C@H]2O[C@H](CN)[C@@H](O)[C@H](O)[C@H]2O)[C@H](O)[C@H]1O[C@H]1O[C@H](CO)[C@@H](O)[C@H](N)[C@H]1O [Amikacin]	1 (≈ 1.71 µM)	2 (≈ 3.42 µM)	1 (≈ 1.71 µM)			
CO/N=C(\C(=O)N[C@@H]1C(=O)N2C(C(=O)O)=C(COC(C)=O)CS[C@H]12)c1csc(N)n1 [Cefotaxime]	> 8	> 8	> 8			
CO[C@@]1(NC(=O)Cc2cccs2)C(=O)N2C(C(=O)O)=C(COC(N)=O)CS[C@@H]21 [Cefoxitine]	2 (≈ 4.68 µM)	4 (≈ 9.36 µM)	2 (≈ 4.68 µM)			
CC(C)(O/N=C(\C(=O)N[C@@H]1C(=O)N2C(C(=O)[O-])=C(C[n+]3ccccc3)CS[C@H]12)c1csc(N)n1)C(=O)O [Ceftazidime]	≤ 0.125	≤ 0.125	≤ 0.125			
CO/N=C(\C(=O)N[C@@H]1C(=O)N2C(C(=O)O)=C(CSc3nc(=O)c(=O)[nH]n3C)CS[C@H]12)c1csc(N)n1 [Ceftriaxone]	> 8	> 8	> 8			
C[C@@H](O)[C@H]1C(=O)N2C(C(=O)O)=C(S[C@@H]3CN[C@H](C(=O)Nc4cccc(C(=O)O)c4)C3)[C@H](C)[C@H]12 [Ertapenem]	≤ 0.0156	0.0312 (≈ 0.0657 µM)	≤ 0.0156			
C[C@@H](O)[C@H]1C(=O)N2C(C(=O)O)=C(SCCN=CN)C[C@H]12 [Imipinem]				<=0.5 mg/I	<=0.5 mg/I	<=0.5 mg/I
C[C@H]1COc2c(N3CCN(C)CC3)c(F)cc3c(=O)c(C(=O)O)cn1c23 [Levofloxacin]	0.5 (≈ 1.38 µM)	0.5 (≈ 1.38 µM)	0.5 (≈ 1.38 µM)			
C[C@@H](O)[C@H]1C(=O)N2C(C(=O)O)=C(S[C@@H]3CN[C@H](C(=O)N(C)C)C3)[C@H](C)[C@H]12 [Meropenem]	≤ 0.0625	≤ 0.0625	≤ 0.0625			
CN(C)c1cc(NC(=O)CNC(C)(C)C)c(O)c2c1C[C@H]1C[C@H]3[C@H](N(C)C)C(O)=C(C(N)=O)C(=O)[C@@]3(O)C(O)=C1C2=O [Tigecyclin]				0.5 mg/I	0.5 mg/I	0.5 mg/I
NC[C@H]1O[C@H](O[C@H]2[C@H](O)[C@@H](O[C@H]3O[C@H](CO)[C@@H](O)[C@H](N)[C@H]3O)[C@H](N)C[C@@H]2N)[C@H](N)C[C@@H]1O [Tobramycin]	2 (≈ 4.28 µM)	2 (≈ 4.28 µM)	2 (≈ 4.28 µM)			
Amoxicillin/clavulanic acid				8 mg/I	16 mg/I	16 mg/I
Ceftolozane-tazobactam				0.25 mg/I	0.25 mg/I	0.25 mg/I
Colistin				0.5 mg/I	1 mg/I	1 mg/I
Gentamicin				0.5 mg/I	0.5 mg/I	0.5 mg/I
Piperacillin/Tazobactam				4 mg/I	4 mg/I	4 mg/I
Trimethoprim/Sulfamethoxasole				>16 mg/I	>16 mg/I	>16 mg/I
ceftazidime-avibactam				16 mg/I	32 mg/I	32 mg/I
